Test results: ChEMBL document CHEMBL4831511, “Fluorovinylsulfones and -Sulfonates as Potent Covalent Reversible Inhibitors of the Trypanosomal Cysteine Protease Rhodesain: Structure-Activity Relationship, Inhibition Mechanism, Metabolism, and In Vivo Studies” (J Med Chem, 2021)
Active and inactive are the calls of the source. The calls are words filed in the database; no cut-off is given here.

Columns and labels:
[1] = system: J774.1; assay: Cytotoxicity against mouse J774.1 cells by Alamar blue assay; assay type: functional
[2] = species: Homo sapiens; assay: Inhibition of alpha-chymotrypsin-like activity of human 20S proteasome at 11 uM using Succ-Leu-Leu-Val-Tyr-AMC as fluorogenic substrate by microplate reader relative to control
[3] = system: HeLa; assay: Cytotoxicity against human HeLa cells by Alamar blue assay; assay type: functional
[4] = species: Homo sapiens; assay: Inhibition of caspase-like activity of human 20S proteasome at 11 uM using Cbz-Leu-Leu-Glu-AMC as fluorogenic substrate by microplate reader relative to control
[5] = system: Dengue virus; assay: Inhibition of Dengue virus NS2B-NS3 protease assessed as fluorescent emission using boc-Gly-Arg-Arg-AMC at 11 uM by microplate reader relative to control
[6] = target: Proteasome Macropain subunit (Homo sapiens) (UniProt P49721); assay: Inhibition of trypsin-like activity of human 20S proteasome at 11 uM using boc-Leu-Arg-Arg-AMC as fluorogenic substrate by microplate reader relative to control
[7] = target: T1, Rhodesain (Trypanosoma brucei rhodesiense, UniProt Q95PM0); assay: Competitive inhibition of Trypanosoma brucei rhodesain assessed as fluorescence using Cbz-Phe-Arg-AMC as substrate by fluorometric enzyme assays
[8] = target: Rhodesain (Trypanosoma brucei rhodesiense) (UniProt Q95PM0); assay: Reversible inhibition of Trypanosoma brucei rhodesain assessed as reversibility using Cbz-Phe-Arg-AMC as substrate by dilution assay
[9] = system: Trypanosoma brucei brucei; assay: Antiprotozoal activity against Trypanosoma brucei brucei BS449 assessed as luminescence incubated for 24 to 48 hrs by ATPlite assay; assay type: functional, organism-based
[10] = target: Rhodesain (Trypanosoma brucei rhodesiense) (UniProt Q95PM0); assay: Reversible inhibition of Trypanosoma brucei rhodesain assessed as fluorescence using Cbz-Phe-Arg-AMC as substrate by fluorometric enzyme assays
[11] = target: T1, Rhodesain; assay: Inhibition of Trypanosoma brucei rhodesain assessed as fluorescence using Cbz-Phe-Arg-AMC as substrate measured at second inhibition step by fluorometric enzyme assays
[12] = target: Cathepsin B (Homo sapiens, UniProt P07858); assay: Inhibition of human liver CatB assessed as fluorescence using Cbz-Phe-Arg-AMC as substrate at 11 uM by fluorometric enzyme assays
[13] = system: cathepsin L (CatL) versus rhodesain; assay: Selectivity index, ratio of Ki for human liver CatL to Trypanosoma brucei rhodesain; details: read-out: Selectivity Index
[14] = system: Trypanosoma brucei brucei; assay: Antiprotozoal activity against Trypanosoma brucei brucei TC211 assessed as luminescence incubated for 24 to 48 hrs by ATPlite assay; assay type: functional, organism-based
[15] = target: Procathepsin L (Homo sapiens, UniProt P07711); assay: Inhibition of human liver CatL assessed as fluorescence using Cbz-Phe-Arg-AMC as substrate measured at second inhibition step by fluorometric enzyme assays
[16] = target: Rhodesain (Trypanosoma brucei rhodesiense) (UniProt Q95PM0); assay: Reversible inhibition of Trypanosoma brucei rhodesain assessed as reversibility by measuring residual enzymatic activity using Cbz-Phe-Arg-AMC as substrate after 1 hr by fluorometry based dialysis experiment relative to control

T1 sequence (Q95PM0 whole entry): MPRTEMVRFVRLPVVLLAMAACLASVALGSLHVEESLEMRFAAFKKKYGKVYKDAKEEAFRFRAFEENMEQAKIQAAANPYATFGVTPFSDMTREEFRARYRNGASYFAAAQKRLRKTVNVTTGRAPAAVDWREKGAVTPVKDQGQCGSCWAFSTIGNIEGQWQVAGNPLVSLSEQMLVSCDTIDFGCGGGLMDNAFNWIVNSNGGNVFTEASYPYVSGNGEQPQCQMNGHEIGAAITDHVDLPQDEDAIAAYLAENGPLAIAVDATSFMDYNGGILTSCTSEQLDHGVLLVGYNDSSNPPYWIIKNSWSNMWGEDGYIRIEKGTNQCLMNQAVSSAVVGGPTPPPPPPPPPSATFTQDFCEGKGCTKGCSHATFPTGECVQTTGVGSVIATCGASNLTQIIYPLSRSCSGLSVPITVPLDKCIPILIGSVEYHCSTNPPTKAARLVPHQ
Rhodesain (Trypanosoma brucei rhodesiense), sequence (Q95PM0 1-450): as the sequence (Q95PM0 whole entry) above
Proteasome Macropain subunit (Homo sapiens), sequence (P49721 whole entry): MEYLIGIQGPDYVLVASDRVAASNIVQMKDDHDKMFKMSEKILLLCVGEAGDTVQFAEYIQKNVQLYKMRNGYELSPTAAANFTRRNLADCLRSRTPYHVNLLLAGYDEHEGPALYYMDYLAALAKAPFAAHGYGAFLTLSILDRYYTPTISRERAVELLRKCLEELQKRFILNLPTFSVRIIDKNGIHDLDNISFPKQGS
Procathepsin L, sequence (P07711 whole entry): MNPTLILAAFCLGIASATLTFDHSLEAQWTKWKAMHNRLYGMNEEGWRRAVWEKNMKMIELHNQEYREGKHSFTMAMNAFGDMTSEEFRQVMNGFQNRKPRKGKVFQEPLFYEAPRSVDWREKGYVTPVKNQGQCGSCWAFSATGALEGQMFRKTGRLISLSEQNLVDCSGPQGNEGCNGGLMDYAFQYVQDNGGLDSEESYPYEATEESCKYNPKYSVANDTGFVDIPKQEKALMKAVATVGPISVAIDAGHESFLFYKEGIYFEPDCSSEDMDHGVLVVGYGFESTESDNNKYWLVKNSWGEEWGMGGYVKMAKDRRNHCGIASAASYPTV

Row | EC50 [9] | Structure (SMILES) | CC50 [1] | inhibition [2] | CC50 [3] | inhibition [4] | inhibition [5] | inhibition [6] | Ki [7] | Activity [8] | Activity [10] | Ki [11] | inhibition [12] | selectivity ratio [13] | EC50 [14] | Ki [15] | Activity [16]
1 | 3000 nM | O=C(N[C@@H](Cc1ccccc1)C(=O)N[C@H](/C=C(\F)S(=O)(=O)c1ccccc1)CCc1ccccc1)c1ccncc1 | > 100000 nM | 10% | > 100000 nM | 41% | inactive | inactive | 47 nM | Active | Active |  |  |  |  |  | 
2 |  | Cc1ccc(C[C@H](NC(=O)c2ccncc2)C(=O)N[C@H](/C=C(\F)S(=O)(=O)Cc2ccccc2)CCc2ccccc2)cc1 |  | inactive | > 100000 nM | inactive | inactive | inactive | 25 nM | Active | Active | 15 nM | 35% | 12 | 1400 nM | 181 nM | 47%
